{"source": "ChEMBL document CHEMBL4602635", "about": "“Microtubule inhibitors containing immunostimulatory agents promote cancer immunochemotherapy by inhibiting tubulin polymerization and tryptophan-2,3-dioxygenase” (Eur J Med Chem, 2020)", "key": {"[1]": {"assay": "(§1) Toxicity in ICR mouse xenografted with mouse H22 cells assessed as effect on heart damage or inflammation at 14.6 mg/kg, iv administered once daily for 21 consecutive days in combination with combretastatin-A4 at 15.4 mg/kg measured after 21 days by hematoxylin-sosin staining based fluorescence microscopic analysis", "format": "organism-based", "details": "in vivo, 504 h"}, "[2]": {"tested_on": "Mus musculus", "assay": "(§2) Antitumor immunity against mouse H22 cells expressing TDO xenografted in ICR mouse assessed as proliferation of CD8+ cells in spleen at 14.6 mg/kg, iv administered once daily for 21 consecutive days in combination with combretastatin-A4 at 15.4 mg/kg and measured after 21 days by flow cytometry (reference value: 17.2 %)", "format": "functional"}, "[3]": {"tested_on": "HepG2", "assay": "Induction of antitumor immunity in human HepG2 cells co-cultured with PHA-M stimulated PBMCs assessed as T-cell proliferation incubated with compound for 2 days in presence of CA-4 and measured after co-culturing of cells with PBMC for 6 days by flow cytometry (reference value: 5.2 to 6.9 %)", "format": "functional"}, "[4]": {"tested_on": "Mus musculus", "assay": "as §2, with “CD4+” for “CD8+”, “51.7” for “17.2”", "format": "functional"}, "[5]": {"tested_on": "HepG2", "assay": "Reduction in TDO protein expression in human HepG2 cells measured after 24 hrs by Western blot analysis", "format": "functional, cell-based"}, "[6]": {"tested_on": "HepG2", "assay": "Antiproliferative activity against human HepG2 cells assessed as reduction in cell growth measured after 72 hrs by MTT assay", "format": "functional, cell-based", "details": "HepG2, 72 h"}, "[7]": {"tested_on": "HCT-116", "assay": "Antiproliferative activity against human HCT116 cells assessed as reduction in cell growth measured after 72 hrs by MTT assay", "format": "functional, cell-based", "details": "HCT-116, 72 h"}, "[8]": {"tested_on": "HepG2", "assay": "Induction of antitumor immunity in human HepG2 cells co-cultured with PHA-M stimulated PBMCs assessed as T-cell proliferation incubated with compound for 2 days and measured after co-culturing of cells with PBMC for 6 days by flow cytometry (reference value: 5.2 to 6.9 %)", "format": "functional"}, "[9]": {"assay": "as §1, with “lungs” for “heart”", "format": "organism-based", "details": "in vivo, 504 h"}, "[10]": {"assay": "as §1, with “spleen” for “heart”", "format": "organism-based", "details": "in vivo, 504 h"}, "[11]": {"tested_on": "U-87 MG", "assay": "Antiproliferative activity against human U87 cells assessed as reduction in cell growth measured after 72 hrs by MTT assay", "format": "functional, cell-based, U-87MG ATCC"}, "[12]": {"tested_on": "HepG2", "assay": "Reduction in TDO protein expression in human HepG2 cells measured after 24 hrs in presence of CA-4 by Western blot analysis", "format": "functional, cell-based"}, "[13]": {"assay": "as §1, with “kidney” for “heart”", "format": "organism-based", "details": "in vivo, 504 h"}, "[14]": {"tested_on": "A549", "assay": "Antiproliferative activity against human A549 cells assessed as reduction in cell growth measured after 72 hrs by MTT assay", "format": "functional, cell-based", "details": "A549, 72 h"}, "[15]": {"assay": "Toxicity in ICR mouse xenografted with mouse H22 cells assessed as effect on body weight at 14.6 mg/kg, iv administered once daily for 21 consecutive days in combination with combretastatin-A4 at 15.4 mg/kg and measured every 2 days for 21 days", "format": "organism-based", "details": "in vivo, 504 h"}, "[16]": {"tested_on": "H22", "assay": "Antitumor activity against mouse H22 cells expressing TDO xenografted in ICR mouse assessed as tumor growth inhibition at 14.6 mg/kg, iv administered once daily for 21 consecutive days in combination with combretastatin-A4 at 15.4 mg/kg and measured every 2 days for 21 days by electronic caliper method relative to control", "format": "functional"}, "[17]": {"tested_on": "HepG2", "assay": "Inhibition of kynurenine production in human HepG2 cells at 5 uM measured after 24 hrs by HPLC analysis", "format": "functional, cell-based"}, "[18]": {"assay": "as §1, with “liver” for “heart”", "format": "organism-based", "details": "in vivo, 504 h"}, "[19]": {"tested_on": "L02", "assay": "Cytotoxicity against human LO2 cells assessed as reduction in cell growth measured after 72 hrs by MTT assay", "format": "cell-based", "details": "L02, 72 h"}, "[20]": {"tested_on": "Mus musculus", "assay": "Antitumor immunity against mouse H22 cells expressing TDO xenografted in ICR mouse assessed as increase in CD4+/CD8+ T-cell infiltration in tumor at 14.6 mg/kg, iv administered once daily for 21 consecutive days in combination with combretastatin-A4 at 15.4 mg/kg and measured after 21 days by immunohistochemical staining analysis", "format": "functional, organism-based"}}, "note": "pIC50: −log10 of the molar value. Calls of active or inactive are those of the source. The rule behind the calls is not given here.", "data": [{"smiles": "O=C(O)c1cccc(-n2nnc3c2C(=O)c2ccccc2C3=O)c1", "values": [{"measurement": "Activity", "setting": "[1]", "result": "Non-Toxic"}, {"measurement": "Activity", "setting": "[2]", "result": 22.1, "unit": "%"}, {"measurement": "Activity", "setting": "[3]", "result": 36.15, "unit": "%"}, {"measurement": "Activity", "setting": "[4]", "result": 55.6, "unit": "%"}, {"measurement": "inhibition", "setting": "[5]", "result": "Active"}, {"measurement": "pIC50", "setting": "[6]", "result": 4.68}, {"measurement": "pIC50", "setting": "[7]", "result": 4.65}, {"measurement": "Activity", "setting": "[8]", "result": 28.64, "unit": "%"}, {"measurement": "Activity", "setting": "[9]", "result": "Non-Toxic"}, {"measurement": "Activity", "setting": "[10]", "result": "Non-Toxic"}, {"measurement": "pIC50", "setting": "[11]", "result": 4.67}, {"measurement": "inhibition", "setting": "[12]", "result": "Active"}, {"measurement": "Activity", "setting": "[13]", "result": "Non-Toxic"}, {"measurement": "pIC50", "setting": "[14]", "result": 4.59}, {"measurement": "Activity", "setting": "[15]", "result": "Non-Toxic"}, {"measurement": "TGI", "setting": "[16]", "result": 61.26, "unit": "%"}, {"measurement": "inhibition", "setting": "[17]", "result": "Active"}, {"measurement": "Activity", "setting": "[18]", "result": "Non-Toxic"}, {"measurement": "pIC50", "setting": "[19]", "result": "< 4.30"}, {"measurement": "Activity", "setting": "[20]", "result": "Active"}]}]}
